Where a name gives a salt, the structure may show the parent alone.
Columns and labels:
Jak2 (a.a. 828-1132) = biological target: T1, Jak2 (a.a. 828-1132) (Homo sapiens, UniProt O60674); assay: In vitro JAK kinase assay (HTRF, phosphorylation of a biotinylated peptide), JAK2, reported as JAK2/JAK1 ratio; assay type: biochemical
T1 construct: Jak2 (a.a. 828-1132); His tag (N); made in house; host or cells: insect cells (baculovirus)
Description: (§1) Compounds herein were tested for inhibitory activity of JAK targets according to the following in vitro assay described in Park et al., Analytical Biochemistry 1999, 269, 94-104. The catalytic domains of human JAK1 (a.a. 837-1142), Jak2 (a.a. 828-1132) and Jak3 (a.a. 781-1124) with an N-terminal His tag were expressed using baculovirus in insect cells and purified. The catalytic activity of JAK1, JAK2 or JAK3 was assayed by measuring the phosphorylation of a biotinylated peptide. The phosphorylated peptide was detected by homogenous time resolved fluorescence (HTRF). IC50s of compounds were measured for each kinase in the 40 microL reactions that contain the enzyme, ATP and 500 nM peptide in 50 mM Tris (pH 7.8) buffer with 100 mM NaCl, 5 mM DTT, and 0.1 mg/mL (0.01%) BSA. The ATP concentration in the reactions was 90 μM for Jak1, 30 μM for Jak2 and 3 μM for Jak3 for Km conditions. For the 1 mM IC50 measurements, ATP concentration in the reactions was 1 mM. Reactions were carried out at RT for 1 h and then stopped with 20 μL 45 mM EDTA, 300 nM SA-APC, 6 nM Eu-Py20 in assay buffer (Perkin Elmer, Boston, Mass.). Binding to the Europium labeled antibody took place for 40 min and HTRF signal was measured on a Fusion plate reader (Perkin Elmer, Boston, Mass.).
(§2) Compounds herein were tested for inhibitory activity of JAK1 and JAK2 targets according to the assay of Example A (experiments run at Km or 1 mM as indicated). The symbol “+” indicates an IC50<50 nM; the symbol “++” indicates an IC50≧50 and ≦100 nM; and the symbol “+++” indicates an IC50>100 and ≦500 nM.

[1] = biological target: T2, human JAK1 (a.a. 837-1142) (Homo sapiens, UniProt P23458); assay: In vitro JAK kinase assay (HTRF, phosphorylation of a biotinylated peptide), JAK1; assay type: biochemical
T2 construct: human JAK1 (a.a. 837-1142); His tag (N); made in house; host or cells: insect cells (baculovirus)
T2 sequence (P23458 849-1154): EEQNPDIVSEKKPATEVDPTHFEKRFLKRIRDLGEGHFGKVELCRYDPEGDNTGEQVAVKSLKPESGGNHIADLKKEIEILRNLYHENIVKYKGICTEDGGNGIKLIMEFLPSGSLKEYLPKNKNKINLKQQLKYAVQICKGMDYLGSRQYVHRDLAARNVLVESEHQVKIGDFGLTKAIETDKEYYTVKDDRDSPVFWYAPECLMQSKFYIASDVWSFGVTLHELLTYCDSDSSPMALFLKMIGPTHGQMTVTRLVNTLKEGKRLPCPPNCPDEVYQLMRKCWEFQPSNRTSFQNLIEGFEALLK
Description: as §1, §2

[2] = Assay Conditions Km (ATP 90 μM for Jak1, 30 μM for Jak2)
[3] = Assay Conditions Km (ATP 90 μM for Jak1)

T1 sequence (O60674 828-1132): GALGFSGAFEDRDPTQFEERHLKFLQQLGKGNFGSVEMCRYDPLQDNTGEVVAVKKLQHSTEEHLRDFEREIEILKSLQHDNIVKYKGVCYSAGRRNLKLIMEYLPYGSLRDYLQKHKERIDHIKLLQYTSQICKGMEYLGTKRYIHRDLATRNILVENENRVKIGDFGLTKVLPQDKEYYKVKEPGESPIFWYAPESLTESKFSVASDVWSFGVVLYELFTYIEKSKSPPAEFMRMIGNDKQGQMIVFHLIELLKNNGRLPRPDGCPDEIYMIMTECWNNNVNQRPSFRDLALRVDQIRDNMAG

SMILES	JAK2/JAK1 IC50 ratio (Jak2 (a.a. 828-1132); Assay Conditions 1 mM ATP)	IC50 ([1]; Assay Conditions 1 mM ATP)	JAK2/JAK1 IC50 ratio (Jak2 (a.a. 828-1132); [2])	IC50 [1, 3]
N#CC[C@@H]([C@H]1CCN(c2c(F)cc(F)c(F)c2C#N)C1)n1cc(-c2ncnc3[nH]ccc23)cn1 [Example 61, 2-((3S)-3-{(1S)-2-cyano-1-[4-(7H-pyrrolo[2,3-d]pyrimidin-4-yl)-1H-pyrazol-1-yl]ethyl}pyrrolidin-1-yl)-3,5,6-trifluorobenzonitrile trifluoroacetate salt]	6.4	< 50 nM	–	–
N#CC[C@@H]([C@H]1CCN(c2nc(Cl)c(N)cc2F)C1)n1cc(-c2ncnc3[nH]ccc23)cn1 [Example 91A, (S)-3-(4-(7H-pyrrolo[2,3-d]pyrimidin-4-yl)-1H-pyrazol-1-yl)-3-((S)-1-(5-amino-6-chloro-3-fluoropyridin-2-yl)pyrrolidin-3-yl)propanenitrile bis(trifluoroacetate)]	6.9	< 50 nM	–	–
N#CC[C@@H]([C@H]1CCN(c2ncnc(C(F)F)c2C#N)C1)n1cc(-c2ncnc3[nH]ccc23)cn1 [Example 110, 4-((S)-3-((S)-1-(4-(7H-pyrrolo[2,3-d]pyrimidin-4-yl)-1H-pyrazol-1-yl)-2-cyanoethyl)pyrrolidin-1-yl)-6-(difluoromethyl)pyrimidine-5-carbonitrile trifluoroacetate salt]	17.6	< 50 nM	–	–
N#Cc1cccc(N2CC[C@H](C(CF)n3cc(-c4ncnc5[nH]ccc45)cn3)C2)c1C#N (stereo partly drawn) [Example 121, 3-((3S)-3-{2-fluoro-1-[4-(7H-pyrrolo[2,3-d]pyrimidin-4-yl)-1H-pyrazol-1-yl]ethyl}pyrrolidin-1-yl)phthalonitrile trifluoroacetate]	4.4	< 50 nM	–	–
CN(C)S(=O)(=O)Nc1nccc(N2CCC(C(CC#N)n3cc(-c4ncnc5[nH]ccc45)cn3)C2)n1 (single isomer, unassigned) [Example 151, N-[4-(3-{2-cyano-1-[4-(7H-pyrrolo[2,3-d]pyrimidin-4-yl)-1H-pyrazol-1-yl]ethyl}pyrrolidin-1-yl)pyrimidin-2-yl]-N,N-dimethylsulfonamide]	12.5	< 50 nM	–	–
N#CC[C@@H]([C@H]1CCN(c2ccc(Cl)nc2Cl)C1)n1cc(-c2ncnc3[nH]ccc23)cn1 [Example 125, (3S)-3-[(3S)-1-(2,6-dichloropyridin-3-yl)pyrrolidin-3-yl]-3-[4-(7H-pyrrolo[2,3-d]pyrimidin-4-yl)-1H-pyrazol-1-yl]propanenitrile trifluoroacetate]	132.5	< 50 nM	–	–
COc1cccc(N2CC[C@H]([C@H](CC#N)n3cc(-c4ncnc5[nH]ccc45)cn3)C2)c1C#N [Example 55, 2-((3S)-3-{(1S)-2-cyano-1-[4-(7H-pyrrolo[2,3-d]pyrimidin-4-yl)-1H-pyrazol-1-yl]ethyl}pyrrolidin-1-yl)-6-methoxybenzonitrile trifluoroacetate salt]	>8	< 50 nM	–	–
N#CC[C@@H]([C@H]1CCN(c2cccc(Cl)c2C#N)C1)n1cc(-c2ncnc3[nH]ccc23)cn1 [Example 48, 2-chloro-6-((3S)-3-{(1S)-2-cyano-1-[4-(7H-pyrrolo[2,3-d]pyrimidin-4-yl)-1H-pyrazol-1-yl]ethyl}pyrrolidin-1-yl)benzonitrile trifluoroacetate]	>30	< 50 nM	–	–
N#CCC(n1cc(-c2ncnc3[nH]ccc23)cn1)C1(F)CCN(c2nc3cccnc3o2)C1 (single isomer, unassigned) [31, Step 4a, enantiomer 1]	5.6	50 to 100 nM	–	–
N#CC[C@@H]([C@H]1CCN(c2ncncc2C#N)C1)n1cc(-c2ncnc3[nH]ccc23)cn1 [Example 84, 4-((S)-3-((S)-1-(4-(7H-pyrrolo[2,3-d]pyrimidin-4-yl)-1H-pyrazol-1-yl)-2-cyanoethyl)pyrrolidin-1-yl)pyrimidine-5-carbonitrile trifluoroacetate]	11.5	< 50 nM	–	–
N#CCC(C1CCN(c2cccc(Cl)n2)C1)n1cc(-c2ncnc3[nH]ccc23)cn1 (single isomer, unassigned) [2, Step 2b]	–	–	3.7	< 50 nM
Cc1cccc(N2CC[C@H]([C@H](CC#N)n3cc(-c4ncnc5[nH]ccc45)cn3)C2)c1C#N [Example 53, 2-((3S)-3-{(1S)-2-cyano-1-[4-(7H-pyrrolo[2,3-d]pyrimidin-4-yl)-1H-pyrazol-1-yl]ethyl}pyrrolidin-1-yl)-6-methylbenzonitrile trifluoroacetate salt]	>7.7	< 50 nM	–	–
N#CCC(C1CCN(c2nccc(Cl)n2)C1)n1cc(-c2ncnc3[nH]ccc23)cn1 (single isomer, unassigned) [Example 4a, 3-[1-(4-chloropyrimidin-2-yl)pyrrolidin-3-yl]-3-[4-(7H-pyrrolo[2,3-d]pyrimidin-4-yl)-1H-pyrazol-1-yl]propanenitrile]	–	–	8.8	< 50 nM
N#CCC(C1CCN(c2ccnc(Cl)n2)C1)n1cc(-c2ncnc3[nH]ccc23)cn1 (single isomer, unassigned) [3, Step 2b]	–	–	8.5	< 50 nM
N#CCC(C1CCN(c2ncc3cc[nH]c3n2)C1)n1cc(-c2ncnc3[nH]ccc23)cn1 (single isomer, unassigned) [Example 16, 3-[4-(7H-pyrrolo[2,3-d]pyrimidin-4-yl)-1H-pyrazol-1-yl]-3-[1-(7H-pyrrolo[2,3-d]pyrimidin-2-yl)pyrrolidin-3-yl]propanenitrile]	11.4	< 50 nM	–	–
CS(=O)(=O)c1nc(N2CC[C@H](C(CF)n3cc(-c4ncnc5[nH]ccc45)cn3)C2)c(F)cc1F (stereo partly drawn) [Example 132, 4-[1-(1-{(3S)-1-[3,5-difluoro-6-(methylsulfonyl)pyridin-2-yl]pyrrolidin-3-yl}-2-fluoroethyl)-1H-pyrazol-4-yl]-7H-pyrrolo [2,3-d]pyrimidine trifluoroacetate]	8.9	< 50 nM	–	–
N#CC[C@@H]([C@H]1CCN(c2nc3ccsc3cc2C#N)C1)n1cc(-c2ncnc3[nH]ccc23)cn1 [Example 75, 5-((3S)-3-{(1S)-2-cyano-1-[4-(7H-pyrrolo[2,3-d]pyrimidin-4-yl)-1H-pyrazol-1-yl]ethyl}pyrrolidin-1-yl)thieno[3,2-b]pyridine-6-carbonitrile]	4.6	< 50 nM	–	–
COCc1ccnc(N2CC[C@H]([C@H](CC#N)n3cc(-c4ncnc5[nH]ccc45)cn3)C2)c1C#N [Example 96, 2-((3S)-3-{(1S)-2-cyano-1-[4-(7H-pyrrolo[2,3-d]pyrimidin-4-yl)-1H-pyrazol-1-yl]ethyl}pyrrolidin-1-yl)-4-(methoxymethyl)nicotinonitrile tris(trifluoroacetate)]	16.3	< 50 nM	–	–
N#CCC(C1CCN(c2nc3ncccc3o2)C1)n1cc(-c2ncnc3[nH]ccc23)cn1 (single isomer, unassigned) [Example 12, 3-(1-[1,3]oxazolo[4,5-b]pyridin-2-ylpyrrolidin-3-yl)-3-[4-(7H-pyrrolo[2,3-d]pyrimidin-4-yl)-1H-pyrazol-1-yl]propanenitrile]	–	–	2.4	< 50 nM
N#CC[C@@H]([C@H]1CCN(c2nc(Cl)c(C#N)cc2F)C1)n1cc(-c2ncnc3[nH]ccc23)cn1 [Example 63, 6-((S)-3-((S)-1-(4-(7H-pyrrolo[2,3-d]pyrimidin-4-yl)-1H-pyrazol-1-yl)-2-cyanoethyl)pyrrolidin-1-yl)-2-chloro-5-fluoronicotinonitrile trifluoroacetate salt]	7.3	< 50 nM	–	–
O=S1(=O)CCc2ccc(N3CC[C@H](C(CF)n4cc(-c5ncnc6[nH]ccc56)cn4)C3)nc21 (stereo partly drawn) [Example 119, 4-(1-{1-[(3S)-1-(1,1-dioxido-2,3-dihydrothieno[2,3-b]pyridin-6-yl)pyrrolidin-3-yl]-2-fluoroethyl}-1H-pyrazol-4-yl)-7H-pyrrolo[2,3-d]pyrimidine trifluoroacetate]	7.6	< 50 nM	–	–
N#CC[C@@H]([C@H]1CCN(c2nc(Cl)ccc2N)C1)n1cc(-c2ncnc3[nH]ccc23)cn1 [Example 105, (S)-3-(4-(7H-pyrrolo[2,3-d]pyrimidin-4-yl)-1H-pyrazol-1-yl)-3-((S)-1-(3-amino-6-chloropyridin-2-yl)pyrrolidin-3-yl)propanenitrile trifluoroacetate salt]	3.0	< 50 nM	–	–

Source: patent US8716303B2, “N-(hetero)aryl-pyrrolidine derivatives of pyrazol-4-yl-pyrrolo[2,3-d]pyrimidines and pyrrol-3-yl-pyrrolo[2,3-d]pyrimidines as janus kinase inhibitors” (Incyte Corporation, priority 2009, dated 2014)
